Source: US20260193293A1, “PEPTIDES CAPABLE OF INHIBITING PROTEIN-PROTEIN INTERACTIONS AT GABAB1A SUBUNIT AND USES THEREOF” (UNIVERSITY OF COPENHAGEN, priority 2022, published 2026)
Like-named read-outs stand apart in the source and are kept apart here. One block for each compound: values may come before it. Non-standard residues stand in square brackets, D forms with d. Residues, ends and D or L forms follow the SMILES beside them. 1Nal = N[C@@H](Cc1cccc2ccccc12)C(=O)O; 2Nal = N[C@@H](Cc1ccc2ccccc2c1)C(=O)O; NMeT = CN[C@H](C(=O)O)[C@@H](C)O; NMeE = CN[C@@H](CCC(=O)O)C(=O)O

Biological target: Sushi domains (SD1/2) protein
Experiment: Fluorescence polarization (FP) competition assay with AJAP-1probe, calculated Ki
Type: binding
Procedure: Fluorescence polarization (FP). FP assay was employed to determine the binding affinity of peptides in flat bottom black 384-well plates (Corning Life Science) using a Safire2 plate reader (Tecan). All experiments were conducted in 1×PBS (pH 7.4) containing 1% bovine serum albumin (BSA) at rt. The fluorescence polarization values were measured using excitation/emission wavelengths of 530/580 nm. The instrumental Z-factor was adjusted to obtain the maximum fluorescence intensity and the G-factor was calibrated to give an initial millipolarization value of 20 mP. All FP assays including saturation or competition experiments were performed using 25 nM of TAMRA labeled peptides as probes. For saturation assay, the millipolarization values were measured after mixing of probes with 12 serial 1 to 1 diluted concentrations of Sushi domains (SD1/2) protein. All experiments were performed in triplicate and the data were plotted to the one-site binding model using GraphPad Prism 9 to calculate the Kd of probes. […] The experiments were performed at least in triplicate and the data were fitted to the sigmoidal dose response curve using GraphPad Prism 9 to obtain the IC50 of peptides. The Ki values were calculated according to Nikolovska-Coleska et al^310.

[1] = purified peptides, read-out: Ki
[2] = Table 6, elongation and truncation scan of PIANP binding epitope, read-out: Ki (nM) mean ± SEM
[3] = Table 3, SPOT hit validation and previously reported peptides, read-out: Ki (nM) mean ± SEM
[4] = Table 11, deep mutational scanning validation variants of AJAP-1WT, read-out: Ki (nM) mean ± SEM

SMILES: CC[C@H](C)[C@H](NC(=O)[C@H](C)NC(=O)[C@H](Cc1c[nH]c2ccccc12)NC(C)=O)C(=O)N[C@H](C(=O)N[C@@H](Cc1c[nH]c2ccccc12)C(=O)NCC(=O)N1CCC[C@H]1C(=O)N[C@H](C(=O)N[C@H](C(=O)N[C@@H](CO)C(=O)N[C@@H](CCCNC(=N)N)C(=O)N[C@@H](CCC(=O)O)C(=O)N[C@@H](CC(=O)O)C(=O)NCC(N)=O)C(C)C)[C@@H](C)O)C(C)C (Ac-WAIVWGPTVSREDG-NH2)
- Ki [2]: > 62500 nM

SMILES: CC[C@H](C)[C@H](NC(=O)[C@H](Cc1ccccc1)NC(=O)[C@H](CCC(=O)O)NC(=O)[C@@H](NC(=O)[C@H](CCC(=O)O)NC(=O)[C@@H](NC(=O)[C@@H](NC(C)=O)[C@@H](C)O)[C@@H](C)O)[C@@H](C)O)C(=O)N[C@@H](C)C(=O)N[C@@H](Cc1c[nH]c2ccccc12)C(=O)NCC(=O)N1CCC[C@H]1C(=O)N[C@H](C(=O)NCC(=O)N[C@@H](CC(=O)O)C(=O)N[C@@H](CCC(=O)O)C(N)=O)[C@@H](C)O (Ac-TTETEFIAWGPTGDE-NH2)
- Ki [3]: 73 ± 1 nM

SMILES: CC[C@H](C)[C@H](NC(=O)[C@H](Cc1ccccc1)NC(=O)[C@H](CCC(=O)O)NC(=O)[C@@H](NC(=O)[C@H](CCC(=O)O)NC(C)=O)[C@@H](C)O)C(=O)N[C@@H](C)C(=O)N[C@@H](Cc1c[nH]c2ccccc12)C(=O)NCC(=O)N1CCC[C@H]1C(=O)N[C@H](C(=O)NCC(=O)N[C@@H](Cc1ccc(O)cc1)C(=O)N[C@@H](CCC(=O)O)C(=O)N[C@@H](CC(=O)O)C(N)=O)[C@@H](C)O [ETEFIAWGPTGYED] (Ac-ETEFIAWGPTGYED-NH2)
- Ki [4]: 41 ± 1 nM

SMILES: CC[C@H](C)[C@H](NC(=O)[C@H](C)NC(=O)[C@H](Cc1c[nH]c2ccccc12)NC(=O)[C@@H]1CCCN1C(=O)[C@H](Cc1ccc(O)cc1)NC(=O)[C@H](CCC(N)=O)NC(C)=O)C(=O)N[C@H](C(=O)N[C@@H](Cc1c[nH]c2ccccc12)C(=O)NCC(=O)N1CCC[C@H]1C(=O)N[C@H](C(=O)N[C@H](C(=O)N[C@@H](CO)C(=O)N[C@@H](CCCNC(=N)N)C(=O)N[C@@H](CCC(=O)O)C(=O)N[C@@H](CC(=O)O)C(=O)NCC(N)=O)C(C)C)[C@@H](C)O)C(C)C (Ac-QYPWAIVWGPTVSREDG-NH2)
- Ki [2]: 650 ± 9 nM

SMILES: CC[C@H](C)[C@H](NC(=O)[C@H](C)NC(=O)[C@H](Cc1c[nH]c2ccccc12)NC(=O)[C@@H]1CCCN1C(C)=O)C(=O)N[C@H](C(=O)N[C@@H](Cc1c[nH]c2ccccc12)C(=O)NCC(=O)N1CCC[C@H]1C(=O)N[C@H](C(=O)N[C@H](C(=O)N[C@@H](CO)C(N)=O)C(C)C)[C@@H](C)O)C(C)C (Ac-PWAIVWGPTVS-NH2)
- Ki [2]: 463 ± 10 nM

SMILES: CC[C@H](C)[C@H](NC(=O)[C@H](Cc1ccccc1)NC(=O)[C@H](CCC(=O)O)NC(=O)[C@@H](NC(=O)[C@H](CCC(=O)O)NC(C)=O)[C@@H](C)O)C(=O)N[C@@H](C)C(=O)N[C@@H](Cc1c[nH]c2ccccc12)C(=O)NCC(=O)N1CCC[C@H]1C(=O)N[C@H](C(=O)NCC(=O)N[C@@H](CC(=O)O)C(=O)N[C@@H](CCC(=O)O)C(=O)N[C@@H](Cc1ccccc1)C(N)=O)[C@@H](C)O (Ac-ETEFIAWGPTGDEF-NH2)
- Ki [4]: 48 ± 1 nM

SMILES: CC[C@H](C)[C@H](NC(=O)[C@H](C)NC(=O)[C@H](Cc1c[nH]c2ccccc12)NC(=O)[C@@H]1CCCN1C(C)=O)C(=O)N[C@H](C(=O)N[C@@H](Cc1c[nH]c2ccccc12)C(=O)NCC(=O)N1CCC[C@H]1C(=O)N(C)[C@H](C(=O)N[C@H](C(=O)N[C@@H](CO)C(=O)N[C@@H](CCCNC(=N)N)C(=O)N[C@@H](CCC(=O)O)C(=O)N[C@@H](CC(=O)O)C(N)=O)C(C)C)[C@@H](C)O)C(C)C (Ac-PWAIVWGP[NMeT]VSRED-NH2)
- Ki (Table 9, Ala-, D-amino acids and N-methylation scans of PIANPWT, read-out: Ki (nM) mean ± SEM): 1260 ± 27 nM

SMILES: CC[C@H](C)[C@H](NC(=O)[C@H](Cc1ccccc1)NC(=O)[C@H](CCC(=O)O)NC(=O)[C@@H](NC(=O)[C@H](CCC(=O)O)NC(=O)[C@@H](NC(C)=O)[C@@H](C)O)[C@@H](C)O)C(=O)N[C@@H](C)C(=O)N[C@@H](Cc1c[nH]c2ccccc12)C(N)=O (Ac-TETEFIAW-NH2)
- Ki (Table 5, elongation and truncation scan of AJAP-1 binding epitope, read-out: Ki (nM) mean ± SEM): 1010 ± 67 nM

Results, then the compound that gave them:

- Ki [1]: 43 nM
- fold increased affinity compared to Asp207Trp (relative to Asp207Trp mutant of APPWT): 2 fold
SMILES: CC(=O)N[C@@H](CCC(=O)O)C(=O)N[C@@H](CC(=O)O)C(=O)N[C@@H](CC(=O)O)C(=O)N[C@@H](CO)C(=O)N[C@@H](Cc1ccc2ccccc2c1)C(=O)N[C@H](C(=O)N[C@@H](Cc1c[nH]c2ccccc12)C(=O)N[C@@H](Cc1c[nH]c2ccccc12)C(=O)NCC(=O)NCC(=O)N[C@@H](C)C(=O)N[C@@H](CC(=O)O)C(=O)N[C@H](C(=O)N[C@@H](CC(=O)O)C(N)=O)[C@@H](C)O)C(C)C (Ac-EDDS[2Nal]VWWGGADTD-NH2)

- Ki [3]: 1350 ± 49 nM
SMILES: CC[C@H](C)[C@H](NC(=O)[C@H](C)NC(=O)[C@H](Cc1c[nH]c2ccccc12)NC(C)=O)C(=O)N[C@H](C(=O)N[C@@H](Cc1c[nH]c2ccccc12)C(=O)NCC(=O)N1CCC[C@H]1C(=O)N[C@H](C(=O)N[C@H](C(=O)N[C@@H](CO)C(=O)N[C@@H](CCCNC(=N)N)C(=O)N[C@@H](CCC(=O)O)C(=O)N[C@@H](CC(=O)O)C(=O)NCC(=O)NCC(N)=O)C(C)C)[C@@H](C)O)C(C)C (Ac-WAIVWGPTVSREDGG-NH2)

- Ki [4]: 30 ± 1 nM
SMILES: CC[C@H](C)[C@H](NC(=O)[C@H](Cc1ccccc1)NC(=O)[C@H](CCC(=O)O)NC(=O)[C@@H](NC(=O)[C@H](CCC(=O)O)NC(C)=O)[C@@H](C)O)C(=O)N[C@@H](C)C(=O)N[C@@H](Cc1c[nH]c2ccccc12)C(=O)NCC(=O)N1CCC[C@H]1C(=O)N[C@H](C(=O)N[C@@H](Cc1c[nH]cn1)C(=O)N[C@@H](CC(=O)O)C(=O)N[C@@H](CCC(=O)O)C(=O)N[C@@H](CC(=O)O)C(N)=O)[C@@H](C)O [ETEFIAWGPTHDED] (Ac-ETEFIAWGPTHDED-NH2)

- Ki (Table 16, ncAAs incorporated peptides, read-out: Ki (nM) mean ± SEM): 69 ± 3 nM
SMILES: CC(=O)N[C@@H](CCC(=O)O)C(=O)N[C@@H](CC(=O)O)C(=O)N[C@@H](CC(=O)O)C(=O)N[C@@H](CO)C(=O)N[C@@H](Cc1cccc2ccccc12)C(=O)N[C@H](C(=O)N[C@@H](Cc1c[nH]c2ccccc12)C(=O)N[C@@H](Cc1c[nH]c2ccccc12)C(=O)NCC(=O)NCC(=O)N[C@@H](C)C(=O)N[C@@H](CC(=O)O)C(=O)N[C@H](C(=O)N[C@@H](CC(=O)O)C(N)=O)[C@@H](C)O)C(C)C (Ac-EDDS[1Nal]VWWGGADTD-NH2)

- Ki [1]: 581 nM
SMILES: CC(=O)N[C@@H](CCC(=O)O)C(=O)N[C@@H](CC(=O)O)C(=O)N[C@@H](CC(=O)O)C(=O)N[C@@H](CO)C(=O)N[C@@H](CC(=O)O)C(=O)N[C@H](C(=O)N[C@@H](Cc1c[nH]c2ccccc12)C(=O)N[C@@H](Cc1c[nH]c2ccccc12)C(=O)NCC(=O)NCC(=O)N[C@@H](C)C(=O)N[C@@H](CC(=O)O)C(=O)N[C@H](C(=O)N[C@@H](CC(=O)O)C(=O)N[C@@H](Cc1ccc(O)cc1)C(N)=O)[C@@H](C)O)C(C)C [Peptide 13] (Ac-EDDSDVWWGGADTDY-NH2)

- Ki (Table 8, Ala-, D-amino acids and N-methylation scans of AJAP-1WT, read-out: Ki (nM) mean ± SEM): 31 ± 1 nM
SMILES: CC[C@H](C)[C@H](NC(=O)[C@H](Cc1ccccc1)NC(=O)[C@H](CCC(=O)O)NC(=O)[C@@H](NC(=O)[C@H](CCC(=O)O)NC(C)=O)[C@@H](C)O)C(=O)N[C@@H](C)C(=O)N[C@@H](Cc1c[nH]c2ccccc12)C(=O)NCC(=O)N1CCC[C@H]1C(=O)N[C@H](C(=O)NCC(=O)N[C@@H](CC(=O)O)C(=O)N(C)[C@@H](CCC(=O)O)C(=O)N[C@@H](CC(=O)O)C(N)=O)[C@@H](C)O (Ac-ETEFIAWGPTGD[NMeE]D-NH2)

- Ki (Table 1, affinity maturation, mean ± SEM, n ≥ 3, read-out: Ki): 95 ± 5 nM
- Ki (Table 13, peptides for affinity maturation, read-out: Ki (nM) mean ± SEM): 95 ± 5 nM
SMILES: CC[C@H](C)[C@H](NC(=O)[C@H](Cc1ccccc1)NC(=O)[C@H](CCC(=O)O)NC(=O)[C@@H](NC(=O)[C@H](CCC(=O)O)NC(C)=O)[C@@H](C)O)C(=O)N[C@@H](C)C(=O)N[C@@H](Cc1c[nH]c2ccccc12)C(=O)N[C@@H](Cc1ccc(O)cc1)C(=O)NCC(=O)N[C@@H](C)C(=O)N[C@@H](CC(=O)O)C(=O)N[C@H](C(=O)N[C@@H](CC(=O)O)C(N)=O)[C@@H](C)O [Peptide 37] (Ac-ETEFIAWYGADTD-NH2)

- Ki [4]: 46 ± 2 nM
SMILES: CC[C@H](C)[C@H](NC(=O)[C@H](Cc1ccccc1)NC(=O)[C@H](CCC(=O)O)NC(=O)[C@@H](NC(=O)[C@H](CCC(=O)O)NC(C)=O)[C@@H](C)O)C(=O)N[C@@H](C)C(=O)N[C@@H](Cc1c[nH]c2ccccc12)C(=O)NCC(=O)N1CCC[C@H]1C(=O)N[C@H](C(=O)N[C@@H](Cc1ccccc1)C(=O)N[C@@H](CC(=O)O)C(=O)N[C@@H](CCC(=O)O)C(=O)N[C@@H](CC(=O)O)C(N)=O)[C@@H](C)O [ETEFIAWGPTFDED]

- Ki (Table 7, Ala-, D-amino acids and N-methylation scans of APPWT, read-out: Ki (nM) mean ± SEM): 503 ± 13 nM
SMILES: CC(=O)N[C@@H](CCC(=O)O)C(=O)N[C@@H](CC(=O)O)C(=O)N[C@@H](CC(=O)O)C(=O)N[C@@H](CO)C(=O)N[C@@H](CC(=O)O)C(=O)N[C@H](C(=O)N[C@@H](Cc1c[nH]c2ccccc12)C(=O)N[C@@H](Cc1c[nH]c2ccccc12)C(=O)NCC(=O)NCC(=O)N[C@@H](C)C(=O)N[C@@H](CC(=O)O)C(=O)N(C)[C@H](C(=O)N[C@@H](CC(=O)O)C(N)=O)[C@@H](C)O)C(C)C (Ac-EDDSDVWWGGAD[NMeT]D-NH2)
